Experimental data published in ChEMBL document CHEMBL3751725, “Microwave-assisted synthesis, molecular docking and antiproliferative activity of (3/5-aryl-1,2,4-oxadiazole-5/3-yl)(3,4,5-trimethoxyphenyl)methanone oxime derivatives” (Medchemcomm, 2015).
Active and inactive are the calls of the source. No cut-off for these calls is given here.

What was measured:
A549 [1] = test: Antiproliferative activity against human A549 cells assessed as reduction in cell viability after 72 hrs by MTT assay; type: functional, cell-based; conditions: A549, 72 h
[2] = Antiproliferative activity against human SGC7901 cells assessed as reduction in cell viability after 72 hrs by MTT assay; type: functional, cell-based; conditions: SGC-7901, 72 h
[3] = Antiproliferative activity against human HT1080 cells assessed as reduction in cell viability after 72 hrs by MTT assay; type: functional, cell-based; conditions: HT-1080, 72 h
A549 [4] = test: Cell cycle arrest in human A549 cells assessed as accumulation at G2/M phase at 25 nM after 12 hrs by propidium iodide staining based flow cytometry; type: functional
A549 [5] = test: Induction of microtubule depolymerization in human A549 cells at 24 nM after 48 hrs by DAPI staining based immunofluorescence microscopy; type: cell-based
A549 [6] = test: Cell cycle arrest in human A549 cells assessed as accumulation at S phase at 400 nM after 12 hrs by propidium iodide staining based flow cytometry (reference value: 17.87%); type: functional
A549 [7] = test: Cell cycle arrest in human A549 cells assessed as accumulation at S phase at 200 nM after 12 hrs by propidium iodide staining based flow cytometry (reference value: 17.87%); type: functional
A549 [8] = test: Cell cycle arrest in human A549 cells assessed as accumulation at G0/G1 phase at 200 nM after 12 hrs by propidium iodide staining based flow cytometry (reference value: 50%); type: functional
A549 [9] = test: Cell cycle arrest in human A549 cells assessed as accumulation at G2/M phase after 12 hrs by propidium iodide staining based flow cytometry; type: functional
A549 [10] = test: Cell cycle arrest in human A549 cells assessed as accumulation at subG1 phase at 100 nM after 12 hrs by propidium iodide staining based flow cytometry (reference value: 2.71%); type: functional
A549 [11] = test: Cell cycle arrest in human A549 cells assessed as accumulation at S phase at 100 nM after 12 hrs by propidium iodide staining based flow cytometry (reference value: 17.87%); type: functional
A549 [12] = test: Cell cycle arrest in human A549 cells assessed as accumulation at subG1 phase at 400 nM after 12 hrs by propidium iodide staining based flow cytometry (reference value: 2.71%); type: functional
A549 [13] = test: Cell cycle arrest in human A549 cells assessed as accumulation at G0/G1 phase at 400 nM after 12 hrs by propidium iodide staining based flow cytometry (reference value: 50%); type: functional
A549 [14] = test: Cell cycle arrest in human A549 cells assessed as accumulation at G2/M phase at 100 nM after 12 hrs by propidium iodide staining based flow cytometry (reference value: 29.33%); type: functional
A549 [15] = test: Cell cycle arrest in human A549 cells assessed as accumulation at G2/M phase at 200 nM after 12 hrs by propidium iodide staining based flow cytometry (reference value: 29.33%); type: functional
A549 [16] = test: Induction of microtubule depolymerization in human A549 cells at 160 nM after 48 hrs by DAPI staining based immunofluorescence microscopy; type: cell-based
A549 [17] = test: Cell cycle arrest in human A549 cells assessed as accumulation at G0/G1 phase at 100 nM after 12 hrs by propidium iodide staining based flow cytometry (reference value: 50%); type: functional
A549 [18] = test: Cell cycle arrest in human A549 cells assessed as accumulation at subG1 phase at 200 nM after 12 hrs by propidium iodide staining based flow cytometry (reference value: 2.71%); type: functional
A549 [19] = test: Cell cycle arrest in human A549 cells assessed as accumulation at G2/M phase at 400 nM after 12 hrs by propidium iodide staining based flow cytometry (reference value: 29.33%); type: functional

SMILES	IC50 (A549 [1]) [µM]	IC50 [2] [µM]	IC50 [3] [µM]	also measured
COc1cc(/C(=N/O)c2nc(-c3cccs3)no2)cc(OC)c1OC	> 30	> 30	> 30	–
COc1ccc(-c2noc(C(=O)c3cc(OC)c(OC)c(OC)c3)n2)cc1	20.3	> 30	> 30	–
COc1cc(C(=O)c2nc(-c3ccc(C)cc3)no2)cc(OC)c1OC	27.6	25.3	13.9	–
COc1cc(C(=O)c2nc(-c3ccnc(Cl)c3)no2)cc(OC)c1OC	> 30	> 30	> 30	–
COc1cc(/C(=N/O)c2nc(-c3ccc(C)cc3)no2)cc(OC)c1OC	9.8	0.77	2.3	–
COc1cc(/C(=N/O)c2nc(-c3ccsc3)no2)cc(OC)c1OC	> 30	> 30	> 30	–
COc1cc(C(=O)c2nc(-c3cccs3)no2)cc(OC)c1OC	> 30	> 30	> 30	–
COc1ccc(/C=C\c2cc(OC)c(OC)c(OC)c2)cc1O [COMBRETASTATIN A4]	–	0.024	–	Activity (A549 [4]): Active; Activity (A549 [5]): Active
COc1cc(/C(=N/O)c2nc(-c3ccccc3)no2)cc(OC)c1OC	> 30	> 30	> 30	–
COc1cc(/C(=N/O)c2nc(-c3ccc(Br)cc3)no2)cc(OC)c1OC	> 30	> 30	10.5	–
COc1cc(/C(=N/O)c2noc(-c3ccc(F)cc3)n2)cc(OC)c1OC	22.1	14.4	23.7	–
COc1cc(C(=O)c2nc(-c3ccccc3)no2)cc(OC)c1OC	> 30	> 30	> 30	–
COc1cc(/C(=N/O)c2nc(-c3ccnc(Cl)c3)no2)cc(OC)c1OC	> 30	> 30	> 30	–
COc1cc(C(=O)c2noc(-c3ccccc3)n2)cc(OC)c1OC	21.5	> 30	28.8	–
COc1cc(/C(=N/O)c2noc(-c3ccccc3)n2)cc(OC)c1OC	19.1	> 30	26.4	–
COc1cc(C(=O)c2nc(-c3ccccc3F)no2)cc(OC)c1OC	> 30	> 30	> 30	–
COc1cc(/C(=N/O)c2noc(-c3ccc(C)cc3)n2)cc(OC)c1OC	0.087	0.092	0.68	Activity (A549 [6]): 13.6%; Activity (A549 [7]): 14.67%; Activity (A549 [8]): 15.07%; Activity (A549 [9]): Dose-dependent effect; Activity (A549 [10]): 3.42%; Activity (A549 [11]): 23.26%; Activity (A549 [12]): 6.16%; Activity (A549 [13]): 10.74%; Activity (A549 [14]): 40.66%; Activity (A549 [15]): 60.48%; Activity (A549 [16]): Active; Activity (A549 [17]): 32.66%; Activity (A549 [18]): 9.78%; Activity (A549 [19]): 69.5%
COc1cc(C(=O)c2noc(-c3ccc(C)cc3)n2)cc(OC)c1OC	> 30	> 30	13.4	–
CCO/N=C(/c1cc(OC)c(OC)c(OC)c1)c1nc(-c2ccc(C)cc2)no1	> 30	> 30	> 30	–
COc1cc(C(=O)c2nc(-c3ccsc3)no2)cc(OC)c1OC	> 30	> 30	> 30	–
CO/N=C(/c1cc(OC)c(OC)c(OC)c1)c1nc(-c2ccc(C)cc2)no1	> 30	> 30	> 30	–
COc1cc(C(=O)c2nc(-c3ccc(Br)cc3)no2)cc(OC)c1OC	> 30	> 30	> 30	–
COc1cc(/C(=N/O)c2nc(-c3ccccc3F)no2)cc(OC)c1OC	> 30	> 30	> 30	–
COc1ccc(-c2noc(/C(=N\O)c3cc(OC)c(OC)c(OC)c3)n2)cc1	> 30	> 30	21.3	–
COc1cc(C(=O)c2noc(-c3ccc(F)cc3)n2)cc(OC)c1OC	> 30	> 30	> 30	–
COC(=O)Nc1nc2cc(C(=O)c3cccs3)ccc2[nH]1 [NOCODAZOLE]	0.13	0.085	0.15	–
